The text below walks through data of ChEMBL document CHEMBL6109159, “Discovery of a Potent and Selective Protein Arginine Methyltransferase 5 (PRMT5) PROTAC Degrader” (J Med Chem, 2025).

Data set [1] has as its target T1, von Hippel-Lindau disease tumor suppressor/Methylosome protein WDR77 (Homo sapiens, UniProt Q9BQA1+P40337). As to the kind of experiment: PROTAC activity at MEP50/VHL in human MDA-MB-468 cells assessed as degradation at 2 uM measured up to 48 hrs by Western blot analysis. In kind it is cell-based. Background: A western blot detects proteins with antibodies after separation by electrophoresis.

Data set [2] relates to MDA-MB-468. As to the kind of experiment: Cytotoxicity against human MDA-MB-468 cells assessed as cell viability measured after 7 days by CCK-8 assay. The format is functional. To be noted: MDA-MB-468, 168 h, time 7 day. On the technique in general: Tetrazolium dyes change colour on reduction, which living cells bring about.
The target of data set [3] is T2, von Hippel-Lindau disease tumor suppressor/Protein arginine N-methyltransferase 5 (Homo sapiens, UniProt O14744+P40337). As to the kind of experiment: PROTAC activity at PRMT5/VHL in human MCF7 cells assessed as degradation at 0.5 uM after 3 days by Western blot analysis. The format is cell-based. To be noted: time 3.0 day.
Data set [4] addresses T2, von Hippel-Lindau disease tumor suppressor/Protein arginine N-methyltransferase 5. As to the kind of experiment: PROTAC activity at PRMT5/VHL in human MCF7 cells assessed as degradation at 5 uM after 3 days by Western blot analysis. The format is cell-based. The conditions noted are these: time 3.0 day.
The target is the same in data set [5]. As to the kind of experiment: PROTAC activity at PRMT5/VHL in human MDA-MB-468 cells assessed as degradation at 2 uM measured up to 12 hrs by Western blot analysis. The format is cell-based.
In data set [6] the target is T1, von Hippel-Lindau disease tumor suppressor/Methylosome protein WDR77. Kind of data set: PROTAC activity at MEP50/VHL in human MDA-MB-468 cells assessed as maximal degradation at 5 uM measured after 72 hrs by Western blot analysis relative to control. The format is cell-based.
Data set [7] deals with Protein arginine N-methyltransferase 5 (Homo sapiens, UniProt O14744). Kind of data set: Inhibition of PRMT5 (unknown origin) using S-adenosylmethionine (SAM) using as substrate preincubated for 30 mins followed by substrate addition measured after 60 mins by microplate reader.
Data set [8] deals with T1, von Hippel-Lindau disease tumor suppressor/Methylosome protein WDR77. As to the kind of experiment: PROTAC activity at MEP50/VHL in human MCF7 cells assessed as degradation at 0.5 uM after 3 days by Western blot analysis. In kind it is cell-based. To be noted: time 3.0 day.
Data set [9] shares this target. Kind of data set: PROTAC activity at MEP50/VHL in human MCF7 cells assessed as degradation at 5 uM after 3 days by Western blot analysis. The format is cell-based. The conditions noted are these: time 3.0 day.
In data set [10] the target is T2, von Hippel-Lindau disease tumor suppressor/Protein arginine N-methyltransferase 5. Kind of data set: PROTAC activity at PRMT5/VHL in human MDA-MB-468 cells assessed as maximal degradation at 5 uM measured after 72 hrs by Western blot analysis relative to control. The format is cell-based.
Data set [11] concerns the target T1, von Hippel-Lindau disease tumor suppressor/Methylosome protein WDR77. Kind of data set: PROTAC activity at MEP50/VHL in human MDA-MB-468 cells assessed as degradation measured at 0.5 uM after 72 hrs by Western blot analysis. In kind it is cell-based.
Data set [12] deals with T2, von Hippel-Lindau disease tumor suppressor/Protein arginine N-methyltransferase 5. As to the kind of experiment: PROTAC activity at PRMT5/VHL in human MDA-MB-468 cells assessed as degradation measured at 0.5 uM after 72 hrs by Western blot analysis. In kind it is cell-based.
Data set [13] concerns MDA-MB-468. Kind of data set: Inhibition of sDMA (symmetric dimethylarginine) level in human MDA-MB-468 cells at 2 uM measured after 7 days by Western blot analysis. In kind it is functional, cell-based. To be noted: time 7.0 day.
Data set [14] concerns MDA-MB-468. As to the kind of experiment: Inhibition of sDMA (symmetric dimethylarginine) level in human MDA-MB-468 cells at 0.5 uM measured after 72 hrs by Western blot analysis. The format is functional, cell-based.
Data set [15] has as its target T2, von Hippel-Lindau disease tumor suppressor/Protein arginine N-methyltransferase 5. Kind of data set: PROTAC activity at PRMT5/VHL in human MDA-MB-468 cells assessed as degradation measured at 5 uM after 72 hrs by Western blot analysis. In kind it is cell-based.
For data set [16], the target named is T1, von Hippel-Lindau disease tumor suppressor/Methylosome protein WDR77. As to the kind of experiment: PROTAC activity at MEP50/VHL in human MDA-MB-468 cells assessed as degradation measured at 5 uM after 72 hrs by Western blot analysis. The format is cell-based.
The test system of data set [17] is MDA-MB-468. Kind of data set: Inhibition of sDMA (symmetric dimethylarginine) level in human MDA-MB-468 cells at 5 uM measured after 72 hrs by Western blot analysis. In kind it is functional, cell-based.
Data set [18] has as its target T2, von Hippel-Lindau disease tumor suppressor/Protein arginine N-methyltransferase 5. Kind of data set: PROTAC activity at PRMT5/VHL in human MDA-MB-468 cells assessed as degradation measured at 0.5 to 5 uM after 24 hrs by Western blot analysis. The format is cell-based. To be noted: dose 0.5-5 µM.
For data set [19], the target named is T1, von Hippel-Lindau disease tumor suppressor/Methylosome protein WDR77. Kind of data set: PROTAC activity at MEP50/VHL in human MDA-MB-468 cells assessed as degradation measured at 0.5 to 5 uM after 24 hrs by Western blot analysis. The format is cell-based. To be noted: dose 0.5-5 µM.
Data set [20] has the same target. Kind of data set: PROTAC activity at MEP50/VHL in human PNT2 cells assessed as degradation at 0.5 to 5 uM after 3 days by Western blot analysis. The format is cell-based. The conditions noted are these: dose 0.5-5 µM, time 3.0 day.
Data set [21] has as its system MCF-10A. Kind of data set: Cytotoxicity against human MCF10A cells assessed as cell viability up to 15 uM measured after 5 days by CCK-8 assay. To be noted: 120 h, time 5 day. In kind it is toxicity, cell-based.
In data set [22] the target is T2, von Hippel-Lindau disease tumor suppressor/Protein arginine N-methyltransferase 5. As to the kind of experiment: PROTAC activity at PRMT5/VHL in human MCF-10A cells assessed as degradation at 0.5 to 5 uM after 3 days by Western blot analysis. The format is cell-based. To be noted: dose 0.5-5 µM, time 3.0 day.
Data set [23] is described as follows: PROTAC activity at PRMT5/VHL in human PNT2 cells assessed as degradation at 0.5 to 5 uM after 3 days by Western blot analysis. To be noted: dose 0.5-5 µM, time 3.0 day.
In data set [24] the test system is MCF-10A. Kind of data set: PROTAC activity at MEP50/VHL in human MCF-10A cells assessed as degradation at 0.5 to 5 uM after 3 days by Western blot analysis. In kind it is cell-based. The conditions noted are these: dose 0.5-5 µM, time 3.0 day.
Data set [25] has as its target T1, von Hippel-Lindau disease tumor suppressor/Methylosome protein WDR77. Kind of data set: PROTAC activity at MEP50/VHL in human PC-3 cells assessed as degradation at 0.5 to 5 uM after 7 hrs by Western blot analysis. In kind it is cell-based. To be noted: dose 0.5-5 µM.
For data set [26], the target named is T2, von Hippel-Lindau disease tumor suppressor/Protein arginine N-methyltransferase 5. As to the kind of experiment: PROTAC activity at PRMT5/VHL in human PC-3 cells assessed as degradation at 0.5 to 5 uM after 7 hrs by Western blot analysis. The format is cell-based. The conditions noted are these: dose 0.5-5 µM.
Data set [27] shares this target. As to the kind of experiment: PROTAC activity at […]/VHL in human MDA-MB-468 cells assessed as relative protein level at 0.5 uM measured after 24 hrs by Western blot analysis. In kind it is cell-based.
For data set [28], the target named is T1, von Hippel-Lindau disease tumor suppressor/Methylosome protein WDR77. Kind of data set: PROTAC activity at MEP50/VHL in human MDA-MB-468 cells assessed as relative protein level at 0.5 uM measured after 24 hrs by Western blot analysis. The format is cell-based.
Data set [29] shares this target. Kind of data set: PROTAC activity at MEP50/VHL in human MDA-MB-468 cells assessed as relative protein level at 5 uM measured after 24 hrs by Western blot analysis. In kind it is cell-based.
The target of data set [30] is T2, von Hippel-Lindau disease tumor suppressor/Protein arginine N-methyltransferase 5. As to the kind of experiment: PROTAC activity at PRMT5/VHL in human MDA-MB-468 cells assessed as relative protein level at 5 uM measured after 24 hrs by Western blot analysis. The format is cell-based.

The structures appear in SMILES notation. pIC50: −log10 of the molar value. Calls of active or inactive are those of the source. No cut-off for these calls is given here.

As a reminder, the GI50 is the concentration at which growth is held to half of that of the control. As usually defined, the pIC50 is −log10 of the IC50, conventionally taken in molar units. A higher pIC50 goes with a small IC50.

T1 sequence (P40337 whole entry, looked up): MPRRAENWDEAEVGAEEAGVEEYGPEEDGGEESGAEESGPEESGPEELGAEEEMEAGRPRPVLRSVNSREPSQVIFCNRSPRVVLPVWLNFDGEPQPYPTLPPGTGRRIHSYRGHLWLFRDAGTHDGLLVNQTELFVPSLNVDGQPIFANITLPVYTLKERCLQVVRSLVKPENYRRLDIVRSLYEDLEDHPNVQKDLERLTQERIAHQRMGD
T1 sequence (Q9BQA1 whole entry, looked up): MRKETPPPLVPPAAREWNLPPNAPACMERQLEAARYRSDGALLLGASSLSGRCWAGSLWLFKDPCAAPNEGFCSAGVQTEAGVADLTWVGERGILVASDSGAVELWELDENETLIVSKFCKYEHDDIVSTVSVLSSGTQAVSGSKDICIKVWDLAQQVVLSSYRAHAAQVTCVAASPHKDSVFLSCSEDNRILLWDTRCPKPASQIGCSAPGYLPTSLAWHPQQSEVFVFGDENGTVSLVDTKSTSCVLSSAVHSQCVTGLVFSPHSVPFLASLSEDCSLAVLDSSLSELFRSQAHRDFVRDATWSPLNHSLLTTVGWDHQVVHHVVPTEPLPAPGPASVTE
T2 sequence (O14744 whole entry, looked up): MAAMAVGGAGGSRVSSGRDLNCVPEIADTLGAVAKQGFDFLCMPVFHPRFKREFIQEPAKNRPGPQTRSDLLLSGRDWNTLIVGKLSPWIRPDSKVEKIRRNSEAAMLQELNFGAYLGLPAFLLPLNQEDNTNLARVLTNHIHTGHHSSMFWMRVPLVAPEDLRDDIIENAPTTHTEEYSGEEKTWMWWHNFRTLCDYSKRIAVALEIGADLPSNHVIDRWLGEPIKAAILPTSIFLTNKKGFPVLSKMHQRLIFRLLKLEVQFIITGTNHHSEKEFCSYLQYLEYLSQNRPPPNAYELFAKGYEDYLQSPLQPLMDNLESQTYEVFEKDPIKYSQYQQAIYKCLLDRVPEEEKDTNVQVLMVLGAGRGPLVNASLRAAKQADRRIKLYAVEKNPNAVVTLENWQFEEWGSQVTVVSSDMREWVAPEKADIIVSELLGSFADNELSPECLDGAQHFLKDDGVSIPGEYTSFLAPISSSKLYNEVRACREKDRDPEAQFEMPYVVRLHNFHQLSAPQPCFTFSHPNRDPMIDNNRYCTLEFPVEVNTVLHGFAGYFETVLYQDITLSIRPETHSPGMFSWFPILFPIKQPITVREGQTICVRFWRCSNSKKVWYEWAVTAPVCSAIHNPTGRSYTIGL
T2 sequence (P40337 whole entry, looked up): as the sequence (P40337 whole entry, looked up) above
Protein arginine N-methyltransferase 5, sequence (O14744 whole entry): as the sequence (O14744 whole entry, looked up) above

`Cc1ncsc1-c1ccc([C@H](C)NC(=O)[C@@H]2C[C@@H](O)CN2C(=O)[C@@H](NC(=O)COCCOCCOCCOCCOCC(=O)N2CC(Nc3cc(C(=O)NC[C@H](O)CN4CCc5ccccc5C4)ncn3)C2)C(C)(C)C)cc1`: in data set [1], the result was inactive. Also, the GI50 in the data set with MDA-MB-468 [2] is > 20 µM. Moreover, the outcome in data set [3], in data set [4], in [5], in [8] and in data set [9] was Active. Moreover, the Activity in [6] and in data set [10] was 50% throughout. The molecule also gave a negative logarithm of the IC50 (pIC50) in data set [7] of 6.16.
As for `O=C(NC[C@H](O)CN1CCc2ccccc2C1)c1cc(NC2COC2)ncn1`, the result in [11], in data set [12], in data set [15] and in data set [16] was inactive. In addition, the inhibition entry in the data set with MDA-MB-468 [13] was “Active; Compound Inhibited Greater Extent Than Ms4322”. Further, in the data set on MDA-MB-468 [2], the GI50 is 0.23 µM. Further, the inhibition result in the data set on MDA-MB-468 [14] and with MDA-MB-468 [17] was “Active” each time.
Regarding `O=C1CCC(N2C(=O)c3ccc(NCCCCCCCCCC(=O)N4CCC(Nc5cc(C(=O)NC[C@H](O)CN6CCc7ccccc7C6)ncn5)CC4)cc3C2=O)C(=O)N1` (stereo not given in full), the result in data set [18] and in data set [19] was inactive. The Activity is 50% in data set [20]; “Toxic” in the data set on MCF-10A [21]; 50% in data set [22]; 50% in [23]; 50% with MCF-10A [24].
Regarding `Cc1ncsc1-c1ccc([C@H](CC(=O)NCCOCCOCCOCCOCCOCCC(=O)N2CCC(Nc3cc(C(=O)NC[C@H](O)CN4CCCCC4)ncn3)CC2)NC(=O)[C@@H]2C[C@@H](O)CN2C(=O)[C@@H](NC(=O)C2(F)CC2)C(C)(C)C)cc1`, the outcome in data set [11], in data set [12], in data set [25], in data set [26], in data set [15] and in [16] was inactive. Moreover, the GI50 with MDA-MB-468 [2] is > 20 µM.
Turning to `Cc1ncsc1-c1ccc(CNC(=O)[C@@H]2C[C@@H](O)CN2C(=O)[C@@H](NC(=O)C2(F)CC2)C(C)(C)C)c(OCC(=O)NCCCC(=O)N2CCC(Nc3cc(C(=O)NC[C@H](O)CN4CCc5ccccc5C4)ncn3)CC2)c1`, the result in [27], in data set [28], in [29] and in data set [30] was Active.
Regarding `Cc1ncsc1-c1ccc([C@H](CC(=O)NCC(=O)N2CCC(Nc3cc(C(=O)NC[C@H](O)CN4CCc5ccccc5C4)ncn3)CC2)NC(=O)[C@@H]2C[C@@H](O)CN2C(=O)[C@@H](NC(=O)C2(F)CC2)C(C)(C)C)cc1`, the outcome in data set [27], in [28], in data set [29] and in data set [30] was Active.
As to `Cc1ncsc1-c1ccc(CNC(=O)[C@@H]2C[C@@H](O)CN2C(=O)[C@@H](NC(=O)C2(F)CC2)C(C)(C)C)c(OCC(=O)NCCOCCOCCOCCC(=O)N2CCC(Nc3cc(C(=O)NC[C@H](O)CN4CCc5ccccc5C4)ncn3)CC2)c1`, the result in data set [27], in data set [28], in data set [29] and in data set [30] was Active.
Consider `Cc1ncsc1-c1ccc([C@H](CC(=O)NCCOCCOCCOCCOCCC(=O)N2CCC(Nc3cc(C(=O)NC[C@H](O)CN4CCc5ccccc5C4)ncn3)CC2)NC(=O)[C@@H]2C[C@@H](O)CN2C(=O)[C@@H](NC(=O)C2(F)CC2)C(C)(C)C)cc1`, for which the outcome in data set [27], in data set [28], in data set [29] and in data set [30] was Active.
On to `Cc1ncsc1-c1ccc([C@H](CC(=O)NCCOCCOCCOCCOCCOCCC(=O)N2CCC(Nc3cc(C(=O)NC[C@H](O)CN4CCc5ccccc5C4)ncn3)CC2)NC(=O)[C@@H]2C[C@H](O)CN2C(=O)[C@@H](NC(=O)C2(F)CC2)C(C)(C)C)cc1`, for which the result in data set [11], in data set [12], in data set [25], in [26], in data set [15] and in [16] was inactive. Further, the GI50 in the data set with MDA-MB-468 [2] turned out to be 9.9 µM.
